Test system: CYP3A4
Experiment: CYP3A4 induction assay (CYP 3A4 mRNA by qPCR in cryopreserved human hepatocytes)
Format: in vitro ADME
Settings: 10 μM compound; for CYP3A4 Ind. (%): value in brackets: induction relative to prototypical inducer rifampicin = 100%
Protocol: CYP induction was evaluated in vitro by determining the expression levels of CYP 3A4 mRNA using the qPCR (quantitative polymerase chain reaction) assay. On day one, cryopreserved human hepatocytes were thawed in prewarmed (37° C.) thawing medium (cryopreserved hepatocyte recovery medium, Gibco™ CM 7000; Thermo Fisher Scientific), centrifuged (1000 g for 10 minutes) and resuspended in plating medium (Gibco™ CM3000—Williams Medium E supplemented with hepatocytes plating supplement pak-serum containing; Thermo Fisher Scientific). Cells were counted by trypan blue exclusion using a hemocytometer and adjusted to a cell density of […]. Thereafter, […] of cell suspension was aliquoted per well in a 96-well plate, resulting in 60,000 cells/well. Plates were shaken in the north-south and east-west direction during plating. Plated cells were incubated at 37° C./5% CO2 in a humidified cell culture incubator for 4-6 hours. During this time, incubation medium (Gibco™ CM4000, cell maintenance supplement pack; Thermo Fisher Scientific) was mixed with Gibco™ Geltrex™ (Thermo Fischer Scientific) at the appropriate Geltrex™ protein concentration. Following recovery, medium was removed from cells and replaced with freshly prepared incubation medium. Cells were incubated overnight in a cell culture incubator (37° C./5% CO2).
The next day the incubation medium was prepared by combining the hepatocyte maintenance supplement pack with Williams medium E. The medium was warmed to 37° C. 1000× dimethyl sulfoxide compound stocks were prepared to the desired concentrations. 10 mM compound stocks in dimethyl sulfoxide were diluted (1 μL to 1 mL CM4000; final concentration=10 μM). Overlay medium was aspirated and […] dose solution added to the desired labeled 96 well plate. Cells were returned to the humidified incubator overnight (37° C./5% CO2).
On day 3, incubation medium was warmed to 37° C., and the same process for compound preparation repeated as in day 2, i.e. 1000× dimethyl sulfoxide compound stocks were prepared to the desired concentration, diluted (1:1000) in warm incubation medium, and this freshly prepared medium was used to replace treatment medium. Cells were returned to the humidified incubator (37° C./5% CO2) overnight.
On day 4, RNA isolation was performed. Prior to RNA isolation, cell viability was assessed using presto blue reagent. 10× dilution of PrestoBlue™ reagent (Thermo Fisher Scientific) was prepared by mixing 1.4 mL PrestoBlue™ with 12.6 mL incubation medium. Medium was aspirated from cells, and 100 μL of cell viability medium (10× dilution of PrestoBlue™ reagent) added and incubated for 17 minutes. Cell viability was determined by measuring absorbance using a microplate reader (Spark® 10M Tecan Life Sciences). After this measurement, media was aspirated using a multichannel aspirator and a glass pipet to completely aspirate from each well. Plates were stored or immediately used for mRNA isolation. All surfaces were cleaned using RNase away. 2× Lysis buffer was well mixed after incubation at ambient temperature. Fresh lysis buffer was prepared by mixing 0.125 μL of 0.5 mM DTT with 4.875 μL 2× lysis buffer. 1× lysis buffer containing DTT was then prepared by adding 5 μL dilution buffer to the 2× lysis buffer and mixing thoroughly. Thereafter, cell lysates were prepared by adding 1× lysis buffer to each sample well (96-well plate). Samples were incubated for 3-6 minutes at ambient temperature while shaking (350-400 rpm) to lyse the cells. Cells were scrapped with tips, and cell lysate (80 μL) was transferred to each well of the mRNA Catcher PLUS™ plate (Thermo Fisher Scientific). mRNA Catcher PLUS™ plate containing samples was covered with adhesive plastic film plate cover and incubated at ambient temperature for 45-60 minutes for RNA hybridization.
After hybridization, lysate was aspirated from the cells. […]

Row | CYP3A4 Ind. (%) | CYP3A4 Ind. fold (CYP3A4 mRNA fold change vs vehicle) [fold] | Compound
1 | 125 | – | C=CC(=O)N1CCC([C@@H]2CCNc3c(C(N)=O)c(-c4ccc(Oc5ccccc5)cc4)nn32)CC1 [Compound A, reference compound]
2 | −1.3 | 0.9 | C=CC(=O)N1CCN([C@@H]2CCNc3c2nn(-c2ccc(Oc4ccccc4)cc2)c3C(N)=O)CC1 [Example 6, (7R)-2-(4-phenoxyphenyl)-7-[4-(prop-2-enoyl)piperazin-1-yl]-4,5,6,7-tetrahydro-2H-pyrazolo[4,3-b]pyridine-3-carboxamide]

Reference: patent US20220213092A1, “BICYCLIC PYRAZOLE BRUTON'S TYROSINE KINASE INHIBITORS” (AbbVie Inc., priority 2020, published 2022)
